{"source": "ChEMBL document CHEMBL4765391", "about": "“Design, synthesis, and Structure-Activity Relationships (SAR) of 3-vinylindazole derivatives as new selective tropomyosin receptor kinases (Trk) inhibitors” (Eur J Med Chem, 2020)", "key": {"BaF3 [1]": {"test_system": "BaF3", "assay": "Antiproliferative activity against mouse BaF3 cells assessed as cell viability measured after 72 hrs by Micro plate reader method", "assay_type": "functional, cell-based", "details": "BaF3, 72 h"}, "[2]": {"molecular_target": "ALK tyrosine kinase receptor (Homo sapiens, UniProt Q9UM73)", "sequence (Q9UM73 whole entry, the tested form may be a part)": "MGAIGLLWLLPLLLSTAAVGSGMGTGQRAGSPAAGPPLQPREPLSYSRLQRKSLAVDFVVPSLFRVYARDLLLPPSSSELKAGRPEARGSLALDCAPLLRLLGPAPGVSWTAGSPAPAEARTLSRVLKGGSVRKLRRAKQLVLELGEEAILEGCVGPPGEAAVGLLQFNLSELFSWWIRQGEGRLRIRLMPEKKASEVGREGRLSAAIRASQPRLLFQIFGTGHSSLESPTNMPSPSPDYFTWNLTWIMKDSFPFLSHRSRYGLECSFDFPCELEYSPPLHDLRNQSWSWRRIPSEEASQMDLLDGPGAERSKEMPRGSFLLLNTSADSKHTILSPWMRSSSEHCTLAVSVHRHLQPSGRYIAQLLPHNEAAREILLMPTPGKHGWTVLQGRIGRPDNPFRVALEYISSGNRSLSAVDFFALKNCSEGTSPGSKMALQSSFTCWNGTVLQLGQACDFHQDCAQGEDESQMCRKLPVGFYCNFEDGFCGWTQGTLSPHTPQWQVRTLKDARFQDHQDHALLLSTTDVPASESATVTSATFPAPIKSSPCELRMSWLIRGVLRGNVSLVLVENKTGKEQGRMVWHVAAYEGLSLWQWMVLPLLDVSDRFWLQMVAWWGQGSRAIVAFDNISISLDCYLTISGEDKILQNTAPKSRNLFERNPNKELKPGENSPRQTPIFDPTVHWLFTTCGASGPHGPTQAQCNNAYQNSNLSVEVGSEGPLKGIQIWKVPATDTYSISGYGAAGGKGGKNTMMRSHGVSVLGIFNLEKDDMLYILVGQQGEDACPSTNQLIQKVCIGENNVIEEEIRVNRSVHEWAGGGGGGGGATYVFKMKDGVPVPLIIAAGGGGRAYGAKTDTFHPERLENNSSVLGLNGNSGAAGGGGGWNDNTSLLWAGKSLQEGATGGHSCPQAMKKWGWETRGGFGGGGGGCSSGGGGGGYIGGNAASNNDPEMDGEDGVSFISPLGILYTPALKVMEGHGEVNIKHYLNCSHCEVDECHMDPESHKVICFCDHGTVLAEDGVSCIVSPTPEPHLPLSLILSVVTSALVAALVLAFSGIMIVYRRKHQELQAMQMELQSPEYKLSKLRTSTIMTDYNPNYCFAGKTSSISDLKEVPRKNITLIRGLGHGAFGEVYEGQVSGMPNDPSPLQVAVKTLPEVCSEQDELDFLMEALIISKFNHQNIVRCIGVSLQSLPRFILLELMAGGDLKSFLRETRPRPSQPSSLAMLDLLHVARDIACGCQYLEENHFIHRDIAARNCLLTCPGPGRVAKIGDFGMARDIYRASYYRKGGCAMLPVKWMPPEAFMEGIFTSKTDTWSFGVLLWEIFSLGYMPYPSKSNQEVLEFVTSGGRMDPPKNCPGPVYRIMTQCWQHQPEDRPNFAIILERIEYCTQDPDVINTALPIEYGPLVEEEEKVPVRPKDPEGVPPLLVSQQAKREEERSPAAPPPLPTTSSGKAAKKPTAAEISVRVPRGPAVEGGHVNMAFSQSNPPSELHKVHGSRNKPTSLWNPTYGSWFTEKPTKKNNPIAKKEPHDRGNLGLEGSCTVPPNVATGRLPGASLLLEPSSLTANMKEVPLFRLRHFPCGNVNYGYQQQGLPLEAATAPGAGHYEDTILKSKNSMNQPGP", "assay": "Binding affinity to wild-type human partial length ALK (I1088 to E1409 residues) expressed in mammalian expression system by Kinomescan method relative to control"}, "[3]": {"molecular_target": "Vascular endothelial growth factor receptor 3 (Homo sapiens, UniProt P35916)", "sequence (P35916 whole entry, the tested form may be a part)": "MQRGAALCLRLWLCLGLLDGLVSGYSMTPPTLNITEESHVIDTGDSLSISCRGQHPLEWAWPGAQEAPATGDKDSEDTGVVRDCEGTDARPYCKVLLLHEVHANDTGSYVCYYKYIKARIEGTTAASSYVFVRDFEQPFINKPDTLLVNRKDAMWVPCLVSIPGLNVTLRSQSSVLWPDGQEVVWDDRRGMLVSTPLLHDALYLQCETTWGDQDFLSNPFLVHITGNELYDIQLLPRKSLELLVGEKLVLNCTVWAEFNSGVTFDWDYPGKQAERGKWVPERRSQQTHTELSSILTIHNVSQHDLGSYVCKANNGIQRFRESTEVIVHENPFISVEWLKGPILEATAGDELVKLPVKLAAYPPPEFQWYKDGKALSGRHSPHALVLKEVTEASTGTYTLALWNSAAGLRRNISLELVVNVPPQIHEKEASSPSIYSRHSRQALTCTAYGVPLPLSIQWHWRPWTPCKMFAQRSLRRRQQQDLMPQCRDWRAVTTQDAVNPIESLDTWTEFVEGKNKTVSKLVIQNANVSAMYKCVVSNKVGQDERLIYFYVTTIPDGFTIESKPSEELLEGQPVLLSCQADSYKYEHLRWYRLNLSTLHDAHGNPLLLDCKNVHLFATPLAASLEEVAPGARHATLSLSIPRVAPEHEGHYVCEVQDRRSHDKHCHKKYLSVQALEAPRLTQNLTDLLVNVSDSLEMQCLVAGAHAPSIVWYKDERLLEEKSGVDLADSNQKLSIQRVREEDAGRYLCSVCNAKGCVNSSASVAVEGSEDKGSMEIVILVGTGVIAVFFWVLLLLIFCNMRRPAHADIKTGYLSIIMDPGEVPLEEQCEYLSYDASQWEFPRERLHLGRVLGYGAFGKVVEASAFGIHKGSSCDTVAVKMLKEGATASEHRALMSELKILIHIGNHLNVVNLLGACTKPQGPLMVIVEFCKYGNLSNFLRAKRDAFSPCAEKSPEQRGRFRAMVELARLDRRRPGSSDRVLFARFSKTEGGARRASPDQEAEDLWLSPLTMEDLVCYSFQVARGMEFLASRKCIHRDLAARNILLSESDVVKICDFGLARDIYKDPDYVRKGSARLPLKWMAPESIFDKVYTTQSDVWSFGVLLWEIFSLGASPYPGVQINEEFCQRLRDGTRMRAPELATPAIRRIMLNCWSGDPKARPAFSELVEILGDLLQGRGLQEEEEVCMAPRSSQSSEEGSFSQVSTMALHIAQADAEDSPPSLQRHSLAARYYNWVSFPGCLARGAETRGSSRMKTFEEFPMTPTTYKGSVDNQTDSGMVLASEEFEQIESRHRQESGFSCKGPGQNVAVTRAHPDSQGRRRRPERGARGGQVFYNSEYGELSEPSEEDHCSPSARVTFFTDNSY", "assay": "Binding affinity to wild-type human partial length FLT4 (E821 to E1196 residues) expressed in bacterial expression system by Kinomescan method relative to control"}, "[4]": {"molecular_target": "NUAK family SNF1-like kinase 1 (Homo sapiens, UniProt O60285)", "assay": "Binding affinity to wild-type human partial length ARK5 (E25 to I332 residues) expressed in bacterial expression system by Kinomescan method relative to control"}, "[5]": {"molecular_target": "Receptor-type tyrosine-protein kinase FLT3 (Homo sapiens, UniProt P36888)", "assay": "Binding affinity to wild-type human partial length FLT3 (V592 to Y969 residues) expressed in bacterial expression system by Kinomescan method relative to control"}, "[6]": {"test_system": "Receptor-type tyrosine-protein kinase FLT3 (Homo sapiens), P36888 [D835H]", "assay": "Binding affinity to FLT3 D835H mutant (unknown origin)"}, "BaF3 [7]": {"test_system": "BaF3", "assay": "Antiproliferative activity against mouse BaF3 cells transfected with wild type ETV6-NTRK2 (unknown origin) assessed as cell viability measured after 72 hrs by Micro plate reader method", "details": "BaF3, 72 h"}, "BaF3 [8]": {"test_system": "BaF3", "assay": "Antiproliferative activity against mouse BaF3 cells transfected with wild type CD74-NTRK1 (unknown origin) assessed as cell viability measured after 72 hrs by Micro plate reader method", "details": "BaF3, 72 h"}, "[9]": {"molecular_target": "T1, BDNF/NT-3 growth factors receptor (Homo sapiens, UniProt Q16620)", "T1 sequence (Q16620 32-822 limits assumed)": "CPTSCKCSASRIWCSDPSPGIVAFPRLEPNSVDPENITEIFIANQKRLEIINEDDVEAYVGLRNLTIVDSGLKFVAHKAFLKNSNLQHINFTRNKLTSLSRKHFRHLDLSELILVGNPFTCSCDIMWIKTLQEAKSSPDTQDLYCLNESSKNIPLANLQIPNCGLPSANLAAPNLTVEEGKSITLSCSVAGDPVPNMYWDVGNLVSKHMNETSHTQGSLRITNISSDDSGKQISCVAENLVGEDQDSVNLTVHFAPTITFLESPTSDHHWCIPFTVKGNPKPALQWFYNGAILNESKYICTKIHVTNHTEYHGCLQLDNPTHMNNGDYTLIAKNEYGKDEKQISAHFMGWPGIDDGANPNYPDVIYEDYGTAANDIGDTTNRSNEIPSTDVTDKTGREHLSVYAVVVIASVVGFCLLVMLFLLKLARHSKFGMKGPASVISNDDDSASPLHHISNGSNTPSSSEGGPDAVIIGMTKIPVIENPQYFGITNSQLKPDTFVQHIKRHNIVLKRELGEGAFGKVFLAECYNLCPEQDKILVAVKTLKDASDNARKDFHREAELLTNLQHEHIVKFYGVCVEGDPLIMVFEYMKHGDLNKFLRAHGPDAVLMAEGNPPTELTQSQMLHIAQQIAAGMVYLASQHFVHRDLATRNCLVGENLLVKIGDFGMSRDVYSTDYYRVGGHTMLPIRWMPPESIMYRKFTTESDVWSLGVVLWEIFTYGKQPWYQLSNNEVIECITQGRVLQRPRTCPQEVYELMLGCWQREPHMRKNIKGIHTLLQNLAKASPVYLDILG", "details": "BaF3, dose 0.3-200 nM, time 6.0 hrs"}, "[10]": {"test_system": "Proto-oncogene tyrosine-protein kinase receptor Ret (Homo sapiens), P07949 [M918T]", "sequence (P07949 whole entry M918T)": "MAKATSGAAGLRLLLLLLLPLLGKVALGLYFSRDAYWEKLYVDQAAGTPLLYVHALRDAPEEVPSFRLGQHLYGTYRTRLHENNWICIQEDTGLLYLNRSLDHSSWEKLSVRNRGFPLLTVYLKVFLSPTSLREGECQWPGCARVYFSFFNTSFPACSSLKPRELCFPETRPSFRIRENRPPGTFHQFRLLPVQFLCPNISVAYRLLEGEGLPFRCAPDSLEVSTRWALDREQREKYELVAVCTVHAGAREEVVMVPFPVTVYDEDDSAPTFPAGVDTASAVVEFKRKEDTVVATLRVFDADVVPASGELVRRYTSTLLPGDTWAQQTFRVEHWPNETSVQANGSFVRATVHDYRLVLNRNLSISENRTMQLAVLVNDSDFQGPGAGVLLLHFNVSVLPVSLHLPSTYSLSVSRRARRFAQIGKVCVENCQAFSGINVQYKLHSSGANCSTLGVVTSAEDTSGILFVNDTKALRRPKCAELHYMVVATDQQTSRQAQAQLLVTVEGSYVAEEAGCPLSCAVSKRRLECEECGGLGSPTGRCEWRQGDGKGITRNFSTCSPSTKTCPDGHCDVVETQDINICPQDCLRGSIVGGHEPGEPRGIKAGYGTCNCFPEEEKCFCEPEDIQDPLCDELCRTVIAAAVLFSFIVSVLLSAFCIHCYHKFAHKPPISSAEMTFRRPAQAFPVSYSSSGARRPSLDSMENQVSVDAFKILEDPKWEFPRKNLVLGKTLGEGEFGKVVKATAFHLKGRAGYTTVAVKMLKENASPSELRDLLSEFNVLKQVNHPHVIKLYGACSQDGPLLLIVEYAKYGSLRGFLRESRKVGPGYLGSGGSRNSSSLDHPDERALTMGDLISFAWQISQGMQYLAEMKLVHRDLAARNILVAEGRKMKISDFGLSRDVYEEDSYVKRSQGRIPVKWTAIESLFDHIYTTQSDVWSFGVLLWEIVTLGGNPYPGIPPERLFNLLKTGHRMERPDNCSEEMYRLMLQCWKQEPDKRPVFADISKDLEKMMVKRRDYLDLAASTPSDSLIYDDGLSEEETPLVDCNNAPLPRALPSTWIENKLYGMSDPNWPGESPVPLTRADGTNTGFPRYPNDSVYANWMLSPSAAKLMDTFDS", "assay": "Binding affinity to RET M918T mutant (unknown origin)"}, "[11]": {"molecular_target": "T1, BDNF/NT-3 growth factors receptor", "details": "BaF3, dose 0.3-200 nM, time 6.0 hrs", "remark": "listed apart in the source"}, "[12]": {"assay": "Oral bioavailability in Sprague-Dawley rat at 10 mg/kg measured after 24 hrs by LC-MS/MS analysis", "assay_type": "ADME, organism-based", "details": "in vivo"}, "BaF3 [13]": {"test_system": "BaF3", "assay": "Antiproliferative activity against mouse BaF3 cells transfected with wild type ETV6-NTRK3 (unknown origin) harbouring G623R mutation assessed as cell viability measured after 72 hrs by Micro plate reader method", "assay_type": "functional, cell-based", "details": "BaF3, 72 h"}, "[14]": {"assay": "Half life in Sprague-Dawley rat at 10 mg/kg, po measured after 24 hrs by LC-MS/MS analysis", "assay_type": "ADME, organism-based", "details": "in vivo"}, "[15]": {"molecular_target": "Proto-oncogene tyrosine-protein kinase receptor Ret (Homo sapiens, UniProt P07949)", "sequence (P07949 whole entry, the tested form may be a part)": "as the sequence (P07949 whole entry M918T) above, with T918M counted along it", "assay": "Binding affinity to wild-type human partial length RET (E713 to D1014 residues) expressed in bacterial expression system by Kinomescan method relative to control"}}, "note": "Calls of active or inactive are those of the source. The calls are words filed in the database; no cut-off is given here.", "data": [{"smiles": "C[C@@H](Nc1ccc2[nH]nc(/C=C/c3ccccn3)c2c1)c1cc(F)cc(F)c1", "values": [{"measurement": "IC50", "setting": "BaF3 [1]", "result": 3120, "unit": "nM"}, {"measurement": "Kd", "setting": "[2]", "result": 150, "unit": "nM"}, {"measurement": "Kd", "setting": "[3]", "result": 45, "unit": "nM"}, {"measurement": "Kd", "setting": "[4]", "result": 140, "unit": "nM"}, {"measurement": "Kd", "setting": "[5]", "result": 190, "unit": "nM"}, {"measurement": "inhibition", "setting": "[6]", "result": "Active"}, {"measurement": "IC50", "setting": "BaF3 [7]", "result": 22, "unit": "nM"}, {"measurement": "IC50", "setting": "BaF3 [8]", "result": 15, "unit": "nM"}, {"measurement": "inhibition", "setting": "[9]", "result": "Active"}, {"measurement": "inhibition", "setting": "[10]", "result": "Active"}, {"measurement": "inhibition", "setting": "[11]", "result": "Active"}, {"measurement": "bioavailability", "setting": "[12]", "result": 8.79, "unit": "%"}, {"measurement": "IC50", "setting": "BaF3 [13]", "result": 243, "unit": "nM"}, {"measurement": "half-life", "setting": "[14]", "result": 1.13, "unit": "h"}, {"measurement": "Kd", "setting": "[15]", "result": 55, "unit": "nM"}]}]}
